Assay results from the supplement of paper PMC10307832.

Key:
Experiment in all cases: relative viability (nuclei count vs DMSO), 5 days (fraction); higher = more cells survive
[1] = compound: C[C@@]1(C(=O)Nc2ccc(F)nc2)CCCN1c1nc(Nc2cc(C3CC3)n[nH]2)c2cccn2n1 + COc1cccc2cc(-c3nc([C@H]4CC[C@H](C(=O)O)CC4)n4ncnc(N)c34)[nH]c12 [OSI-027] (partner 0.5 µM)
Procedure, shortened: (§1)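 For relative viability, nuclei counts in treated wells were divided by those in vehicle wells. Lung cancer cell lines had been pin-tool dosed in 1536-well plates the day after seeding and cultured for 5 days, then fixed and stained in one step (final 0.05% Triton X-100, 1% formaldehyde, 1 ug/ml Hoechst) and imaged at 4×. Doses were one drug alone or a fixed anchor-drug dose plus five library-drug doses (not always all listed) in √10 steps, and values are duplicate-plate medians.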

Motesanib + Foretinib = compound: CC1(C)CNc2cc(NC(=O)c3cccnc3NCc3ccncc3)ccc21 [Motesanib] + COc1cc2c(Oc3ccc(NC(=O)C4(C(=O)Nc5ccc(F)cc5)CC4)cc3F)ccnc2cc1OCCCN1CCOCC1 [Foretinib] (partner 0.25 µM)
Procedure, shortened: as §1

[2] = compound: C[C@@]1(C(=O)Nc2ccc(F)nc2)CCCN1c1nc(Nc2cc(C3CC3)n[nH]2)c2cccn2n1 + CS(=O)(=O)CCNCc1ccc(-c2ccc3ncnc(Nc4ccc(OCc5cccc(F)c5)c(Cl)c4)c3c2)o1 [Lapatinib] (partner 2 µM)
Procedure, shortened: as §1

[3] = compound: C[C@@]1(C(=O)Nc2ccc(F)nc2)CCCN1c1nc(Nc2cc(C3CC3)n[nH]2)c2cccn2n1 + Nc1nc2[nH]cc(CCc3ccc(C(=O)N[C@@H](CCC(=O)O)C(=O)O)cc3)c2c(=O)[nH]1 [Pemetrexed] (partner 0.2 µM)
Procedure, shortened: as §1

Cell Line	relative viability ([1]; first compound 0.04 µM)	relative viability ([1]; first compound 0.1265 µM)	relative viability ([1]; first compound 0.4 µM)	relative viability ([1]; first compound 1.265 µM)	relative viability (Motesanib + Foretinib; first compound 0.01 µM)	relative viability (Motesanib + Foretinib; first compound 0.03162 µM)	relative viability (Motesanib + Foretinib; first compound 0.1 µM)	relative viability (Motesanib + Foretinib; first compound 0.3162 µM)	relative viability (Motesanib + Foretinib; first compound 1 µM)	relative viability ([2]; first compound 0.04 µM)	relative viability ([2]; first compound 0.1265 µM)	relative viability ([2]; first compound 0.4 µM)	relative viability ([2]; first compound 1.265 µM)	relative viability ([3]; first compound 0.04 µM)	relative viability ([3]; first compound 0.1265 µM)	relative viability ([3]; first compound 0.4 µM)	relative viability ([3]; first compound 1.265 µM)
NCI-H520	0.328	0.297	0.257	0.22	0.857	0.79	0.922	0.851	0.948	0.98	0.841	0.826	0.875	0.661	0.529	0.581	0.615
NCI-H596	0.63	0.557	0.555	0.793	0.817	0.818	0.98	0.656	0.806	1.04	0.849	0.848	0.783	0.494	0.497	0.431	0.487
NCI-H647	0.574	0.404	0.484	0.734	1.21	1.14	1.21	1.25	1.14	1.07	1.03	0.84	0.457	0.174	0.163	0.174	0.123
NCI-H650	0.459	0.214	0.306	0.289	1.05	–	1.02	0.974	1.02	0.853	0.828	0.625	0.55	0.837	0.706	0.745	0.692
NCI-H661	0.592	0.564	0.249	0.529	0.998	1.1	0.991	1.13	0.9	0.492	0.839	0.32	0.389	0.918	0.909	0.796	0.899
NCI-H838	0.362	0.192	0.182	0.28	1.17	1.06	1.07	1.14	1.09	0.895	0.85	0.597	0.622	0.234	0.233	0.216	0.215
NCI-H1355	0.272	0.236	0.21	0.251	1.02	0.96	1.02	1.01	1.03	0.908	0.831	0.711	0.654	1.01	0.957	0.826	0.953
NCI-H1395	0.727	0.561	0.668	0.665	0.973	0.809	1.05	1.02	0.942	1.17	0.86	0.885	0.988	0.89	0.411	0.879	0.868
NCI-H1437	0.703	0.272	0.208	0.205	1.28	1.24	1.25	1.3	1.33	0.626	0.445	0.369	0.496	0.246	0.242	0.242	0.284
NCI-H1563	0.721	0.599	0.609	0.631	0.904	0.899	0.915	0.909	0.889	1.1	0.921	0.755	0.723	0.92	0.708	0.73	0.662
NCI-H1650	0.546	0.49	0.442	0.374	1.25	0.816	1.16	1.27	1.23	0.894	0.679	0.656	0.402	0.38	0.29	0.334	0.319
NCI-H1651	0.658	0.525	0.423	0.501	0.824	0.877	0.845	0.82	0.982	0.707	0.706	0.693	0.746	0.62	0.508	0.517	0.447
NCI-H1666	0.611	0.488	0.568	0.426	0.979	0.956	0.947	1.03	1.01	0.455	0.391	0.237	0.296	0.797	0.735	0.714	0.683
NCI-H1734	0.42	0.29	0.268	0.293	0.932	0.883	–	0.879	0.968	1	0.814	0.817	0.98	0.418	0.338	0.404	0.381
NCI-H1755	0.695	0.355	0.589	0.484	0.904	0.914	0.925	1.01	0.842	1.02	0.864	0.858	0.994	0.444	0.408	0.39	0.377
NCI-H1793	0.254	0.195	–	0.196	0.815	0.566	0.721	0.591	0.805	0.801	0.469	0.568	0.53	0.644	0.825	0.634	0.508
NCI-H1915	0.612	0.628	0.592	0.604	1.07	1.06	1.09	1.14	1.06	0.964	0.999	1.01	0.994	0.52	0.46	0.48	0.529
NCI-H1944	0.306	0.256	0.225	0.235	0.959	0.916	0.861	0.967	0.988	0.679	0.536	0.426	0.582	0.605	0.554	0.497	0.544

Cell Line	relative viability ([1]; first compound 0.04 µM)	relative viability ([1]; first compound 0.1265 µM)	relative viability ([1]; first compound 0.4 µM)	relative viability ([1]; first compound 1.265 µM)	relative viability (Motesanib + Foretinib; first compound 0.01 µM)	relative viability (Motesanib + Foretinib; first compound 0.03162 µM)	relative viability (Motesanib + Foretinib; first compound 0.1 µM)	relative viability (Motesanib + Foretinib; first compound 0.3162 µM)	relative viability (Motesanib + Foretinib; first compound 1 µM)	relative viability ([2]; first compound 0.04 µM)	relative viability ([2]; first compound 0.1265 µM)	relative viability ([2]; first compound 0.4 µM)	relative viability ([2]; first compound 1.265 µM)	relative viability ([3]; first compound 0.04 µM)	relative viability ([3]; first compound 0.1265 µM)	relative viability ([3]; first compound 0.4 µM)	relative viability ([3]; first compound 1.265 µM)
NCI-H1975	0.663	0.498	0.423	0.527	0.978	0.9	0.908	0.898	0.899	0.844	0.88	0.601	0.594	0.302	0.298	0.274	0.268
NCI-H1993	0.545	0.533	0.665	0.605	0.861	0.829	0.812	0.777	0.881	0.797	–	0.663	0.592	0.496	0.488	0.462	0.474
NCI-H2009	0.634	0.371	0.403	0.42	1.23	1.21	1.23	1.22	1.21	1.04	1.02	0.856	0.607	1.07	1.01	1.01	1.03
NCI-H2023	0.3	0.088	0.105	0.116	0.849	0.838	0.837	0.911	0.927	0.722	0.542	0.259	0.236	0.252	0.137	0.152	0.0911
NCI-H2085	0.788	0.679	0.599	0.535	0.896	1.22	0.973	1.07	1.03	0.808	0.639	0.661	0.62	0.959	0.844	0.887	0.877
NCI-H2087	0.366	0.254	0.267	0.338	1.02	0.937	1.2	1.23	1.11	1.09	0.958	0.88	0.945	0.669	0.696	0.639	0.668
NCI-H2126	0.469	0.311	0.256	0.344	1.13	1.12	1.17	1.31	1.11	0.693	0.454	0.376	0.399	0.622	0.463	0.379	0.465
NCI-H2170	0.721	0.525	0.592	0.564	1.01	1.03	0.955	0.952	0.982	0.245	0.258	0.283	0.271	0.278	0.236	0.267	0.251
NCI-H2228	0.495	0.187	0.227	0.229	0.995	0.937	0.902	1.02	0.796	1.18	0.721	0.908	0.578	0.388	0.355	0.317	0.286
NCI-H2347	0.33	0.287	0.244	0.342	0.85	0.429	1.14	0.614	1.86	0.955	0.874	0.842	0.959	0.437	0.415	0.436	0.416
NCI-H2405	0.401	0.294	0.269	0.272	–	1.01	1.06	1.07	1.08	0.762	0.706	0.76	0.744	0.8	0.905	0.819	0.614
NCI-H3122	0.499	0.86	0.275	0.412	0.951	0.938	0.821	1.01	0.986	0.94	1.03	0.958	1.03	0.202	0.175	0.178	0.18
PC-3 [JPC-3]	0.688	0.59	0.485	0.621	1.01	1.06	1.06	1.03	1.01	0.457	0.403	0.382	0.398	1.19	1.03	1.04	0.839
PC-14	0.869	0.284	0.563	0.279	0.922	0.997	1	1.01	1.06	0.329	0.282	0.264	0.271	0.154	0.155	0.134	0.121
RERF-LC-KJ	0.51	0.306	0.334	0.346	0.876	0.866	0.848	0.864	0.892	0.793	0.715	0.692	0.696	0.467	0.421	0.438	0.436
SK-LU-1	0.252	0.176	0.198	0.219	0.941	0.831	0.846	0.841	0.906	0.821	0.861	0.598	0.577	1.07	0.833	0.778	0.85
SK-MES-1	0.615	0.317	0.357	0.286	0.949	0.963	0.982	0.945	0.86	0.477	0.438	0.364	0.448	0.948	0.93	0.838	0.796
SW 1573	0.548	0.24	0.283	0.302	0.772	0.905	0.93	0.936	1.08	1.04	0.902	0.729	1	0.847	0.749	0.803	0.244
